The values below come from article PMC12595484, “Optimizing multifunctional fluorescent ligands for intracellular labeling” (Proceedings of the National Academy of Sciences of the …, 2025).

The nature of data set [1]: Determination of logD7.4 (miniaturized shake flask, octanol–PBS). The format is physicochemical. How it is done:
(§1) Detailed descriptions of the materials and methods are provided in the supporting information. Multifunctional rhodamine–HaloTag ligands (13HTL–16HTL and 18HTL–20HTL) were synthesized using palladium-catalyzed cross-coupling reactions to install 3-carboxyazetidine moieties onto rhodamine scaffolds, followed by amide bond formation with biotin–PEG2–NH2, (S)-JQ1–PEG2–NH2, or (R)-JQ1–PEG2–NH2. Spectroscopic properties (λabs, λem, ε, and Φf) were determined in 10 mM HEPES, pH 7.3. The lactone–zwitterion equilibrium constants (KL–Z) were measured in 1:1 (v/v) dioxane–water mixtures. Octanol–water distribution coefficients (logD7.4) were determined by miniaturized shake-flask partitioning experiments using PBS (pH 7.4) and 1-octanol. Cell culture experiments employed HEK293T, U2OS, and Neuro2a cells transfected with HaloTag fusion constructs and labeled with ligands (100 nM to 1 μM, 0.5 to 2 h at 37 °C), followed by fluorescence microscopy using confocal or lattice light-sheet microscopy. Affinity purification studies utilized streptavidin magnetic beads to capture biotin-labeled HaloTag conjugates, with analysis by SDS-PAGE and in-gel fluorescence detection. […]
Reported values are averages of at least two measurements.
Determination of logD7.4. The log of distribution coefficients at pH 7.4 was determined in octanol–phosphate-buffered saline (PBS) using a miniaturized shake flask setup described previously.6, 7 Briefly, 150 mL each of octanol and PBS pH 7.4 were stirred vigorously for 12–16 h. The layers were allowed to stand for at least 24 h for phase separation. The separated layers were collected and served as PBS saturated with octanol (PBS*) and octanol saturated with PBS (octanol*). Stock solutions (1 mM or 5 mM) of ligands were prepared in DMSO and diluted in PBS* to obtain 1 μM or 10 μM (3–5 mL) of the standard (std). This standard was used to prepare appropriate dilutions using octanol*, in triplicate, in 2-mL glass vials. The leftover standard was used to determine the standard concentration (Cstd). The vials were vortexed for 1 min and shaken horizontally at 700 rpm for 2 h. The vials were then shaken upright at 150 rpm for 2 h to allow the phases to separate. The octanol* layer was pipetted out, and the PBS* layer was used for further analyses. The concentrations of ligands in the standard and PBS* (CPBS*) were determined via fluorescence measurements of 200 μL of PBS* or std in 96-well plates on the Cytation 5 Multimode Plate Reader (BioTek). For Si-rhodamine containing ligands, 2–20 μL of […]
trifluoroacetic acid was added to each well of the 96-well plate prior to the fluorescence measurements. Reported values are averages of at least two measurements. The logD7.4 was obtained as described previously using equation 2: logD = log *’(" × r − 1. +)*+∗ / (2) […]
where Cstd is the standard concentration in PBS, CPBS* is the concentration in PBS after partitioning, r is the dilution factor of the standard solution, VPBS* is the volume of PBS used in the partitioning, and Voctanol* is the volume of octanol used in the partitioning.
Plasmid construction for mitochondria imaging and affinity purification. HaloTag, amplified from the pHTC HaloTag CMV-neo Vector (Promega; G7711) and monomeric-superfolder green fluorescent protein (msGFP; lab stock), was fused to the mitochondrial targeting signal from OMP25,8 interspacing flexible GS(GSS)4 linkers between each domain by PCR Splicing by Overlap Extension (SOE). This construct was subcloned into hSynapsin promoter bearing a copy of FUGW.9 FUGW was a gift from David Baltimore (Addgene plasmid # 14883; RRID:
Addgene_14883).10 This construct was designated as pF(UG) hSyn HaloTag-TEV-4×GS-msGFP- […]
HEK293T cell culture. HEK293T cells (ATCC) were passaged before 80% confluency by trypsinization (Corning; 25-053-CI) and trituration. The cell suspension was then plated on glass coverslips (Warner instruments; 64-0734, CS-18R17) coated with poly-D-lysine (Thermofisher; […]

Data set [2] can be described thus: Spectroscopy of HaloTag ligands and HaloTag conjugates. It counts as physicochemical. The conditions noted are these: 10 mM HEPES, pH 7.3. The method, then:
as §1
HaloTag protein purification. The bacterial expression vector pRSET-A (Invitrogen) was used to recombinantly express HaloTag (HT7; Promega).1 The soluble 6×His-Tagged HaloTag protein was affinity purified by immobilized metal affinity chromatography (IMAC) on a 5 -mL Fast Flow HiTrap Sepharose 6 column (Cytiva) with a 0–200 mM imidazole elution gradient using an Avant Protein Purification System (ÄKTA). A280 peak fractions were pooled, concentrated by a spin concentrator, and dialyzed 3× into tris-buffered saline (TBS). The amino acid sequence of HaloTag (HT7) expressed from pRSET-A is noted below; the annotated DNA and amino acid sequences […]
Spectroscopy of HaloTag ligands and HaloTag conjugates. Compounds 13HTL–16HTL, 18HTL, and 19HTL were prepared as stock solutions in DMSO and diluted such that the final DMSO […]
All measurements were taken at ambient temperature (22
± 2 °C). Absorption spectra were recorded on a Cary Model 100 spectrometer (Agilent) using 1-cm path length 1.0-mL quartz microcuvettes from Starna Cells. Fluorescence spectra were recorded on a Cary Eclipse fluorometer (Varian) using 1-cm path length 3.5-mL quartz cuvettes (Starna Cells). As before,2-4 HaloTag protein was used as a 100 μM solution in 1× TBS. HaloTag ligands 13HTL–16HTL, 18HTL, and 19HTL (5 μM) were dissolved in 10 mM HEPES, pH 7.3, containing 0.1 mg/mL CHAPS. An aliquot of HaloTag protein (1.5 equiv) was added, and the resulting mixture was incubated until a consistent absorbance signal was observed (60–120 min).
To measure the fold-increase of absorbance upon HaloTag binding, a “no HaloTag” control experiment was performed where an equivalent volume of TBS blank was added in place of the protein. Reported values for extinction coefficient (ε) are averages of at least two measurements. […]
Quantum yield determination. All reported absolute fluorescence quantum yield values (Φf) were measured in our laboratory under identical conditions using a Quantaurus-QY spectrometer (model C11374, Hamamatsu). This instrument uses an integrating sphere to determine photons absorbed and emitted by a sample. Measurements were performed using dilute samples (absorbance < 0.1), and self-absorption corrections were performed using the instrument software.5 Reported values are averages of at least two measurements.
Determination of logD7.4. The log of distribution coefficients at pH 7.4 was determined in octanol–phosphate-buffered saline (PBS) using a miniaturized shake flask setup described previously.6, 7 Briefly, 150 mL each of octanol and PBS pH 7.4 were stirred vigorously for 12–16 h. The layers were allowed to stand for at least 24 h for phase separation. The separated layers were collected and served as PBS saturated with octanol (PBS*) and octanol saturated with PBS […]

Setting [3] is: 1-octanol/PBS, octanol–PBS pH 7.4, miniaturized shake flask, read-out: logD7.4.

Read-outs that look alike come from different tables or passages of the source.

`C[Si]1(C)c2cc(N3CC(F)C3)ccc2C2(OC(=O)c3ccc(C(=O)NCCOCCOCCCCCCCl)cc32)c2ccc(N3CC(F)C3)cc21` [6HTL, JF635–HaloTag ligand, reference compound]: the logD in data set [1] (pH 7.4) worked out at 3.82. Further, in data set [2], the Φf was 0.60, the ε was ~ 400 M^−1cm^−1, the λabs amounted to 640 nm and the λem stood at 658 nm.
In the case of `O=C(CCCCC1SCC2NC(=O)NC21)NCCOCCOCCNC(=O)C1C[N+](=c2ccc3c(-c4cc(C(=O)NCCOCCOCCCCCCCl)ccc4C(=O)[O-])c4ccc(N5CCC5)cc4oc-3c2)C1` (stereo not shown) [13HTL, biotin–JF549–HaloTag ligand], the logD in data set [1] (setting [3]) came to 0.07. Moreover, in data set [2], the Φf amounted to 0.90, the ε was 92,000 M^−1cm^−1, the λabs stood at 552 nm and the λem came to 575 nm.
Consider `CC1(C)C2=CC(=[N+]3CC(C(=O)NCCOCCOCCNC(=O)CCCC[C@@H]4SC[C@@H]5NC(=O)N[C@@H]54)C3)C=CC2=C(c2cc(C(=O)NCCOCCOCCCCCCCl)ccc2C(=O)[O-])c2ccc(N3CCC3)cc21` (stereo partly shown) [14HTL, biotin–JF608–HaloTag ligand], for which, in data set [1] (setting [3]), the logD was determined as 2.63. In data set [2], the Φf was 0.65, the ε was 92,300 M^−1cm^−1, the λabs came to 610 nm and the λem is given as 634 nm.
With `C[Si]1(C)C2=CC(=[N+]3CC(C(=O)NCCOCCOCCNC(=O)CCCC[C@@H]4SC[C@@H]5NC(=O)N[C@@H]54)C3)C=CC2=C(c2cc(C(=O)NCCOCCOCCCCCCCl)ccc2C(=O)[O-])c2ccc(N3CCC3)cc21` (stereo partly shown) [15HTL, biotin–JF646–HaloTag ligand], in data set [1] (pH 7.4), the logD was determined as 3.06. Moreover, in data set [2], the Φf is 0.56, the ε is 34,000 M^−1cm^−1, the λabs worked out at 647 nm and the λem turned out to be 666 nm.
`C[Si]1(C)C2=CC(=[N+]3CC(F)(C(=O)NCCOCCOCCNC(=O)CCCC[C@@H]4SC[C@@H]5NC(=O)N[C@@H]54)C3)C=CC2=C(c2cc(C(=O)NCCOCCOCCCCCCCl)ccc2C(=O)[O-])c2ccc(N3CC(F)C3)cc21` (stereo partly shown) [16HTL, biotin–JF635–HaloTag ligand] returned a logD in data set [1] (pH 7.4) of 3.6. Also, in data set [2], the Φf is listed as 0.60, the ε is on record as 2,900 M^−1cm^−1, the λabs is 636 nm and the λem amounted to 655 nm.
